The results in this text go back to patent publication US5756109A, “Skin care compositions containing geranyl geraniol and retinol or retinyl esters” (Chesebrough-Pond's USA Co., Division of Conopco, Inc., priority 1996, dated 1998).

The test system of test [1] is Human keratinocytes. The test is described as follows: 3H-thymidine incorporation, keratinocyte proliferation (Example 3). The class given is cell-based. As to conditions: for activity at […]: Homo sapiens, Keratinocyte, 250 nM, read-out: % Control (thymidine incorporation). On the procedure:
(§1) Human keratinocytes, isolated from neonatal foreskin by trypsin treatment were grown in Dulbecco Modification Eagle (DME) Hams F12 (1:1) medium/10% fetal calf serum in the presence of irradiated 3T3 mouse fibroblasts for establishing dividing keratinocyte colonies. Cells were grown under the above condition until their second passage and kept frozen for future use. Frozen second passage keratinocytes were thawed and plated into the above medium and grown for five days before they were switched to a serum-free MCDB 153-based medium keratinocyte growth medium (KGM) from Clonetics Corporation, San Diego, Calif., containing 0.15 mM Ca, or keratinocyte serum-free media (KSFM) from GIBCO containing 0.09 mM Ca). On day 7, when the cells were 80-90% confluent, they were trypsinized and plated in the serum-free medium for the various experiments.
The incorporation of ^3 H-thymidine by cultured keratinocytes was used as an assay of keratinocyte proliferation. Thymidine is one of four deoxynucleosides which are the monomeric units of DNA, the universal library of genetic information in the animal kingdom. Prior to cell division of a somatic cell such as a keratinocyte, the complete genome of the cell undergoing cell division is replicated. This involves large scale DNA synthesis by the cell and enables both daughter cells to receive identical copies of the genetic material. When 3H-thymidine is included in the culture media of keratinocytes which are synthesizing DNA in preparation for cell division then the labelled nucleoside is incorporated into the newly synthesized DNA. The extent of incorporation of ^3 H-thymidine into a population of cells is proportional to the rate of DNA synthesis by this population of cells and therefore an indication of their cellular proliferation.
For Example 3, the following procedure was employed to measure thymidine incorporation:
Human keratinocytes were plated in 24-well plates at a density of 40,000 cells/well in 1 ml keratinocyte growth media. The cells were allowed to grow until they were 60-70% confluent (approx. 4 days), after which they were treated (in triplicate) with test agents in media for 4 hours. Tritiated thymidine (1 microcurie/ml) was then added, and the cells were incubated for an additional 18 hrs. The medium was removed and the cells were incubated for 30 minutes with ice cold 10% trichloroccetic acid. The cells were then washed 5× with 5% TCA and dissolved in 0.5 ml 0.1M NaOH. After neutralization with 0.1M HCl, aliquots were removed to measure protein and radioactivity by liquid scintillation counting.
^3 H-Thymidine incorporation was measured according to the procedure described in Materials and Methods section above.
(Incorporation of labelled thymidine or its analogues reports DNA synthesis.)

The next test deals with retinol esterification. In words: In vitro microsomal esterification of retinol, ARAT and LRAT together (statements in words). As to conditions: compared with farnesol. It is filed as biochemical, bovine. The source says:
(§2) Microsomes are obtained as described in: J. C.

For the next test, the system named is ARAT. In words: In vitro microsomal esterification of retinol, ARAT (retinyl palmitate formation). The class given is biochemical, bovine. The note with it: 10 micromolar retinol, 1 hour, 37° C.
Source text: It is believed that the use of retinol or esters of retinol would be preferred over retinoic acid. Retinol is an endogenous compound which occurs naturally in the human body and is essential for normal epithelial cell differentiation. Retinol is also considered much safer than retinoic acid. Esters of retinol hydrolyze in-vivo to produce retinol. […] These esterification reactions are very efficient in keratinocytes--the majority (95%) of cellular retinoids are in the form of retinyl fatty esters.
as §2

Another test deals with TGase I. The test is described as follows: Transglutaminase (TGase I) ELISA normalized to DNA, keratinocyte differentiation (Example 1). It is filed as cell-based, human. The note with it: […]10^-7, […]10^-8 and […]10^-9 M. On the procedure:
as §1
During the process of terminal differentiation in the epidermis, a 15 nm thick layer of protein, known as the cornified envelope (CE) is formed on the inner surface of the cell periphery. The CE is composed of numerous distinct proteins which have been cross-linked together by the formation of N^E -(γ-glutamyl) lysine isodipeptide bonds catalyzed by the action of at least two different transglutaminases (TGases) expressed in the epidermis. TGase I is expressed in abundance in the differentiated layers of the epidermis, especially the granular layer, but is absent in the undifferentiated basal epidermis. […]
Keratinocytes (cultured as described above) were plated in 96 well plates at a density of 3,000 cells per well in 200 μl media. […] The absorbance of samples was read at 492 nm in the plate reader. […] TGase levels were determined by subtracting background from the readings from each treatment and determining mean±s.d. for the replicates exposed to both Ab.
The level of TGase-1 detected after treatment of the cells could be influenced by cell number, i.e., the greater the number of cells the greater the level of TGase-1 detected. […]
A general note: An ELISA detects its analyte on a solid surface through an enzyme-linked reagent.

The subject of test [2] is Human keratinocytes. The test is described as follows: 3H-thymidine incorporation, keratinocyte proliferation (Example 1). It is filed as cell-based. The note with it: […]10^-7, […]10^-8 and […]10^-9 M; over ethanol control and retinol treatments. On the procedure:
as §1
The incorporation of ^3 H-thymidine by cultured keratinocytes was used as an assay of keratinocyte proliferation. […]
Keratinocytes (that were cultured as described above) were plated in 24 well plates at a density of about 20,000 cells per well in 1 ml media. […] Disintegrations per minute (DPM) from ^3 H labelling of DNA was determined by liquid scintillation counting of 900 μl of the cell preparation. Thymidine incorporation results were expressed as DPM/μg protein.

The structures appear in SMILES notation. “Also recorded” adds a separate entry of the source. Read-outs that look alike come from different tables or passages of the source.

As for `CC(C)=CCC/C(C)=C/CC/C(C)=C/CC/C(C)=C/CO` [Geranyl Geraniol, geranyl geraniol], in the test with Human keratinocytes [1] (10 nM geranyl geraniol with 250 nM retinol, compared with retinoic acid), the “proliferation enhancing effect of retinol (in words)” value is recorded as “significantly increase the proliferation enhancing effect of retinol to a level similar to that which can be achieved with a comparable amount of retinoic acid”. Further, the “inhibition of retinol esterification (in words)” value in the test on retinol esterification was “substantially more potent esterification inhibitor, than farnesol; also recorded: substantially more potent at inhibiting retinol esterification than other terpenes, e.g., farnesol”. Moreover, the “% INHIB. ARAT” value with ARAT (10 μM) came out at 38%; with ARAT (100 μM), 81%.

In the case of `CC1=C(/C=C/C(C)=C/C=C/C(C)=C/C(=O)O)C(C)(C)CCC1` [RA, Retinoic Acid], the values for the activity at […] in the test on Human keratinocytes [1] (Experiment #1) and with Human keratinocytes [1] (Experiment #2) were 156% and 163%, respectively. Moreover, the “decrease in transglutaminase level (in words)” value with TGase I was “dose dependent”. Moreover, the “keratinocyte differentiation (in words)” value in the test with TGase I (over ethanol control and corresponding retinol treatments) was “decreased keratinocyte differentiation”. Besides, the “keratinocyte proliferation (in words)” value in the test with Human keratinocytes [2] is recorded as “significantly increased keratinocyte proliferation”.

For `CC1=C(/C=C/C(C)=C/C=C/C(C)=C/CO)C(C)(C)CCC1` [ROH, Retinol], the activity at […] in the test with Human keratinocytes [1] (Experiment #1) came to 108%; with Human keratinocytes [1] (Experiment #2), 107%. The “decrease in transglutaminase level (in words)” value with TGase I is on record as “dose dependent”.

Turning to `CC(C)=CCCC(C)=CCCC(C)=CCO` [Farnesol, farnesol], the “% INHIB. ARAT” value with ARAT (10 μM) is 20%; with ARAT (100 μM) it was 43%.
